By IC50 is commonly meant the point on the concentration scale where inhibition reaches its midpoint. A lower IC50 goes with higher potency.

Molecules are shown by their SMILES.

The values that follow come from ChEMBL document CHEMBL1158883, “Flavanone glycosides from Miconia trailii” (J Nat Prod, 2003).

The experiment has as its target Fatty acid synthase (Homo sapiens, UniProt P49327). Kind of experiment: Inhibition of fatty acid synthase.

Sequence of Fatty acid synthase (P49327 whole entry): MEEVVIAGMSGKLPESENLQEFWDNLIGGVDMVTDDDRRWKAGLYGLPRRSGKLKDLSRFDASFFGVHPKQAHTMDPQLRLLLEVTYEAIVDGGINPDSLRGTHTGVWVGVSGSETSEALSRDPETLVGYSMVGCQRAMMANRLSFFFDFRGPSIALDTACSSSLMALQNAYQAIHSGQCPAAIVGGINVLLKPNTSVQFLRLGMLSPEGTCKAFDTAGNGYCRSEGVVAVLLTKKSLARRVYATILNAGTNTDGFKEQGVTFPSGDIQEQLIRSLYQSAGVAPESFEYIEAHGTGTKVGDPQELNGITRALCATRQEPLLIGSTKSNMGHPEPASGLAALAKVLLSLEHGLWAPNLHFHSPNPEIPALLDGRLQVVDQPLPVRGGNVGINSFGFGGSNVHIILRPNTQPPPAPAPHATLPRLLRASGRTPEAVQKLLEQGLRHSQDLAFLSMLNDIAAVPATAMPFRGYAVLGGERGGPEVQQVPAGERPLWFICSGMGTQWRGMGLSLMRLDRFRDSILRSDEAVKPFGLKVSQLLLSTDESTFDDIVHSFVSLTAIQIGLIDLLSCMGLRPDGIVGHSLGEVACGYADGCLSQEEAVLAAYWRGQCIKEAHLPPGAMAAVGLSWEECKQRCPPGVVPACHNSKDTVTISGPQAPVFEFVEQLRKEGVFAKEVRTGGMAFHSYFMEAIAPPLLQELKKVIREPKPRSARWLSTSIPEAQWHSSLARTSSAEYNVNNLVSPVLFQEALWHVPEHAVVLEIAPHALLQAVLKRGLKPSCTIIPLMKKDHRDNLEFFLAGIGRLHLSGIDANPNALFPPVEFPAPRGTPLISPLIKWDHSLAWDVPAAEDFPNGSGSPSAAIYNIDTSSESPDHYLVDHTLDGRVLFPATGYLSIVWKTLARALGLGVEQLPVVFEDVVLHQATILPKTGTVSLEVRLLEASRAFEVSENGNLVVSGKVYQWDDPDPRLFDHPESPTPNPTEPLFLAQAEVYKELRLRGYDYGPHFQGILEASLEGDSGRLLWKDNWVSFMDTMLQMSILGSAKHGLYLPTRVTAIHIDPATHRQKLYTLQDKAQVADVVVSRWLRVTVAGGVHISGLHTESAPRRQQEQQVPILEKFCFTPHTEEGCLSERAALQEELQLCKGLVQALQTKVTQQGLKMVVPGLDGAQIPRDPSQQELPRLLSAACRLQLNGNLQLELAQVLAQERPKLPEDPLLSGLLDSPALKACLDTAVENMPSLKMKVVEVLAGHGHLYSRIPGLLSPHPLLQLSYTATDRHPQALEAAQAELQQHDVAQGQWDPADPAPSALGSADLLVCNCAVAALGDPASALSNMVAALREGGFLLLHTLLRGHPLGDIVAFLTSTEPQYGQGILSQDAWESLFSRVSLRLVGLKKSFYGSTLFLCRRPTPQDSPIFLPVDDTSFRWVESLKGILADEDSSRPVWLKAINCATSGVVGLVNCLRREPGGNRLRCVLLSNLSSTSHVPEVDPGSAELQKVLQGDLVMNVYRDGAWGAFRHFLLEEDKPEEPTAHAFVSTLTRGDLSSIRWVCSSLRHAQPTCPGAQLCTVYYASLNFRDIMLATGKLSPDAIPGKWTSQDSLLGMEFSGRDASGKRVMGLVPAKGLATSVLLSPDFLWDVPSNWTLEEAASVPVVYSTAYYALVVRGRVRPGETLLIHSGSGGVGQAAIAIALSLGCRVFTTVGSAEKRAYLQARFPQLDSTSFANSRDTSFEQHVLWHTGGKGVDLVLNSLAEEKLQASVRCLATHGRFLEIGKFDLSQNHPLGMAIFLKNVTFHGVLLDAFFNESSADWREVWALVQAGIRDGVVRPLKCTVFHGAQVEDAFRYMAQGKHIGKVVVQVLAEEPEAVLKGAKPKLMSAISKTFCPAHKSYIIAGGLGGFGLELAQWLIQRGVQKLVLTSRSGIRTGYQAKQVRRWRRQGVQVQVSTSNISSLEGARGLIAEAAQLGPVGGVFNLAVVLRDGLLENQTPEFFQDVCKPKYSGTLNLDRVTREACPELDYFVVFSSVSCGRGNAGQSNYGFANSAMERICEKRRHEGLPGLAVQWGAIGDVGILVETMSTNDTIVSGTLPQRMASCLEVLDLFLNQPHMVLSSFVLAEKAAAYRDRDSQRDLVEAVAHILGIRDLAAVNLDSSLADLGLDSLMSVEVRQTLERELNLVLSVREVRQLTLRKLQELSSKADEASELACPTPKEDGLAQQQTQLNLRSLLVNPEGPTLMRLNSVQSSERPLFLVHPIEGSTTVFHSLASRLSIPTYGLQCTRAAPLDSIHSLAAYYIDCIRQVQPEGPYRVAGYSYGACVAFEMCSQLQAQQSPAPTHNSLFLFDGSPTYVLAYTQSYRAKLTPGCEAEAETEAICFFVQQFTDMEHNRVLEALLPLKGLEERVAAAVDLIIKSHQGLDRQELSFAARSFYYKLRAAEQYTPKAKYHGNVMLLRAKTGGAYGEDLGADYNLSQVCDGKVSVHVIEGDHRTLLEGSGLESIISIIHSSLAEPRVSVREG

The molecule `COc1ccc([C@@H]2CC(=O)c3c(O)c(C)c(O[C@@H]4O[C@H](CO[C@@H]5OC[C@H](O)[C@H](O)[C@H]5O)[C@@H](O)[C@H](O)[C@H]4O)c(C)c3O2)cc1` [MICONIOSIDE A] returned a 50% inhibitory concentration (IC50) of more than 82200 nM.

The molecule `C/C=C/C/C=C/CCC(=O)[C@H]1O[C@H]1C(N)=O` [CERULENIN] gave an IC50 of 851 nM.
